Test results published in paper PMC8763936 (Investigational New Drugs, 2021).
Several values for one entry are separate records, joined by “and”; a condition that tells them apart may be missing. Equal entries are not always repeated. Where two headings read alike, the source gives them in different places.

Tests used:
CYP3A4/5 = assay: In vitro CYP inhibition (direct and time-dependent) in human liver microsomes; format: in vitro ADME
[1] = Study 1 Cohort 2: single dose entrectinib alone or with rifampin, plasma pharmacokinetics; details: for AUCinf / Cmax / t1/2 / half-life: geometric mean (geometric CV); for M5/Entrectinib ratio, AUCinf / M5/Entrectinib ratio, Cmax: arithmetic mean (CV)
Protocol: All doses of study medication were administered at the study center.

CYP1A2 = target: T1, CYP1A2 (Homo sapiens, UniProt P05177); assay: In vitro CYP inhibition in human liver microsomes; format: in vitro ADME; set-up: purchased Corning-Gentest
T1 sequence (P05177 1-516): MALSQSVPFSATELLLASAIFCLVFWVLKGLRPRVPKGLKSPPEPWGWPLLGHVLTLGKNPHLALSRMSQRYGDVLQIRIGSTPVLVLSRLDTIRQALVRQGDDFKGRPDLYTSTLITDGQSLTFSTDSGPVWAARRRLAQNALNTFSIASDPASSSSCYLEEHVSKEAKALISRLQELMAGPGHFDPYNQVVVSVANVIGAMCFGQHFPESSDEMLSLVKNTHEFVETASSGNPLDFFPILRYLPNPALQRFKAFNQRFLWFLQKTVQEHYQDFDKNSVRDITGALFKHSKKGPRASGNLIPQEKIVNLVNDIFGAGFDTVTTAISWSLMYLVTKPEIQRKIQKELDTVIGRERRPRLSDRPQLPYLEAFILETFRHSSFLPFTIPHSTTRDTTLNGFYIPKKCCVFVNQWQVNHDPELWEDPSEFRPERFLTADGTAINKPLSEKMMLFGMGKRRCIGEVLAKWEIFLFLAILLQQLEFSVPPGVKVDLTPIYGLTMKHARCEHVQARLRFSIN

CYP2B6 [2] = target: T2, CYP2B6 (Homo sapiens, UniProt P20813); assay: In vitro CYP inhibition in human liver microsomes; format: in vitro ADME; set-up: purchased Corning-Gentest
T2 sequence (P20813 1-491): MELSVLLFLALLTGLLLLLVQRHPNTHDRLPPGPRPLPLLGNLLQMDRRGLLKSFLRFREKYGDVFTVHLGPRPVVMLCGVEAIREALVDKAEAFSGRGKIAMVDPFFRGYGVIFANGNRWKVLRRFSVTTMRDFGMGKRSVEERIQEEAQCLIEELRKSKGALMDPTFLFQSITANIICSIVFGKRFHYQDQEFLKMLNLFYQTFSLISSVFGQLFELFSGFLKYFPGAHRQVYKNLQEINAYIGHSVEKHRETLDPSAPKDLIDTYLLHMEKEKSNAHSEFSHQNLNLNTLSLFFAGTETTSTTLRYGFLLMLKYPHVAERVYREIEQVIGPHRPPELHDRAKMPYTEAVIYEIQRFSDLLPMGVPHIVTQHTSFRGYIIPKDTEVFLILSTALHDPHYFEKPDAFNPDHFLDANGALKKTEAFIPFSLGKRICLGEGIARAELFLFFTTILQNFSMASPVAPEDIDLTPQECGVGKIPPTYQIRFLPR

CYP2C9 = CYP2C9 (Homo sapiens, UniProt P11712); assay: In vitro CYP inhibition in human liver microsomes; format: in vitro ADME; set-up: purchased Corning-Gentest
Chain of CYP2C9 (P11712 whole entry): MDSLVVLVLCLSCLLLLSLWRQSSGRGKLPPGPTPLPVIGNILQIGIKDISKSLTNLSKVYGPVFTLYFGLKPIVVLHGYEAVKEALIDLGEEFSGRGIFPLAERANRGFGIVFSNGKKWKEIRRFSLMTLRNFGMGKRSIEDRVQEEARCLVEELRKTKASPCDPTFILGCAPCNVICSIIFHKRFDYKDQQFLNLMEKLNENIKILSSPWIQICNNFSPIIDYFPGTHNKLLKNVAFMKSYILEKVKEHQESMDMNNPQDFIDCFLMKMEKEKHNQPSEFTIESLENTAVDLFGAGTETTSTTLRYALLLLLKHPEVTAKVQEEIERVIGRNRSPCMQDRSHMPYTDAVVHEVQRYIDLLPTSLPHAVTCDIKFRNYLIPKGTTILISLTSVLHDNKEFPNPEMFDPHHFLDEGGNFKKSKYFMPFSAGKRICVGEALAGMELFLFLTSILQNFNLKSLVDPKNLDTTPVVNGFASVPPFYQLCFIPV

CYP2B6 [3] = target: T2, CYP2B6; assay: Metabolism by recombinantly expressed CYP enzymes
CYP2C19 = CYP2C19 (Homo sapiens, UniProt P33261); assay: Metabolism by recombinantly expressed CYP enzymes; set-up: Entrectinib Metabolism to M5: key to the marks not given beside the values
Chain of CYP2C19 (P33261 whole entry): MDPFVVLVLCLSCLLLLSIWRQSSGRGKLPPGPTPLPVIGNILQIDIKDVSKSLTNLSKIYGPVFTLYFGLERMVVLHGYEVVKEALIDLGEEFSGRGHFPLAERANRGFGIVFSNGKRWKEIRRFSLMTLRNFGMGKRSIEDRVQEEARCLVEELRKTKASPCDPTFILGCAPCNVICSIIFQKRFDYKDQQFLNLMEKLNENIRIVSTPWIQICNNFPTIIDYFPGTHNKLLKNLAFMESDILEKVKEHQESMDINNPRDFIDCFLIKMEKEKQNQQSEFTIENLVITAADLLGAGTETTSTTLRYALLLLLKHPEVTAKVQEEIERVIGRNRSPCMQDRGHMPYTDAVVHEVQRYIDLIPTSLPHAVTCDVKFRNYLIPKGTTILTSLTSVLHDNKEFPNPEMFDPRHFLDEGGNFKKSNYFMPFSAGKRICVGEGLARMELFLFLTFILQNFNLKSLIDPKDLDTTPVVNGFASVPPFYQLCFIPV

CYP3A4 = CYP3A4 (Homo sapiens, UniProt P08684); assay: Metabolism by recombinantly expressed CYP enzymes; set-up: key to the marks not given beside the values
Chain of CYP3A4 (P08684 whole entry): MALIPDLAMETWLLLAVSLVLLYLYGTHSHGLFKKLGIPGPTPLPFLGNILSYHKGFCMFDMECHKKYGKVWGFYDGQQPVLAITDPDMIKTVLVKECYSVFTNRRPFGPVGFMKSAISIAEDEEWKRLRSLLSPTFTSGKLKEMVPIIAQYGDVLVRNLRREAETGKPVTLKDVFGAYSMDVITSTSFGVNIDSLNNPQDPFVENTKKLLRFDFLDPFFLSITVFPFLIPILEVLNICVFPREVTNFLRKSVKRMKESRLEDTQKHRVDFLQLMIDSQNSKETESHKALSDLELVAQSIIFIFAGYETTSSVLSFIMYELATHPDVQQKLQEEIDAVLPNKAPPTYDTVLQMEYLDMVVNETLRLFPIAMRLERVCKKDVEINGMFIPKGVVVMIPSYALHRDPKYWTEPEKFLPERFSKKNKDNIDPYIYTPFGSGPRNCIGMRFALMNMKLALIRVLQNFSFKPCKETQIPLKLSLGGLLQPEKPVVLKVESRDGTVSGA

CYP3A5 = CYP3A5 (Homo sapiens, UniProt P20815); assay: Metabolism by recombinantly expressed CYP enzymes; set-up: Entrectinib Metabolism to M5 / M5 Metabolism: key to the marks not given beside the values
Chain of CYP3A5 (P20815 whole entry): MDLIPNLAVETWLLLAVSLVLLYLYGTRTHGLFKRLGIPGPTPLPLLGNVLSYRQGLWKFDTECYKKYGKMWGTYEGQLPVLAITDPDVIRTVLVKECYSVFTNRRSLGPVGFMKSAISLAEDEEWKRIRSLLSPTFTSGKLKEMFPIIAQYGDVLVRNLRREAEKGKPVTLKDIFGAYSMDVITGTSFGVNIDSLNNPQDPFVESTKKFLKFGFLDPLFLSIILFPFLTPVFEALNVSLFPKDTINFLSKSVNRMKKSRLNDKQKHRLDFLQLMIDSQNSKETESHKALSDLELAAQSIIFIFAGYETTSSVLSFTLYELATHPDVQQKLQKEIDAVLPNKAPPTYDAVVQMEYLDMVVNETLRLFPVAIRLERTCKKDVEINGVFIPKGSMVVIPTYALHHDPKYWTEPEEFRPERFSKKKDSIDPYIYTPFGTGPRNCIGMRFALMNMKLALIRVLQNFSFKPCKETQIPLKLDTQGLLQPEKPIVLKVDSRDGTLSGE

[4] = Metabolic profile of entrectinib in human hepatocytes
[5] = Metabolic profile of entrectinib in pooled human liver microsomes
CYP2C8 = target: T3, CYP2C8 (Homo sapiens, UniProt P10632); assay: In vitro CYP inhibition in human liver microsomes; format: in vitro ADME; set-up: was investigated in human liver microsomes; from tissue; host or cells: pooled human liver microsomes; details: for IC50: human liver microsomes
T3 sequence (P10632 1-490): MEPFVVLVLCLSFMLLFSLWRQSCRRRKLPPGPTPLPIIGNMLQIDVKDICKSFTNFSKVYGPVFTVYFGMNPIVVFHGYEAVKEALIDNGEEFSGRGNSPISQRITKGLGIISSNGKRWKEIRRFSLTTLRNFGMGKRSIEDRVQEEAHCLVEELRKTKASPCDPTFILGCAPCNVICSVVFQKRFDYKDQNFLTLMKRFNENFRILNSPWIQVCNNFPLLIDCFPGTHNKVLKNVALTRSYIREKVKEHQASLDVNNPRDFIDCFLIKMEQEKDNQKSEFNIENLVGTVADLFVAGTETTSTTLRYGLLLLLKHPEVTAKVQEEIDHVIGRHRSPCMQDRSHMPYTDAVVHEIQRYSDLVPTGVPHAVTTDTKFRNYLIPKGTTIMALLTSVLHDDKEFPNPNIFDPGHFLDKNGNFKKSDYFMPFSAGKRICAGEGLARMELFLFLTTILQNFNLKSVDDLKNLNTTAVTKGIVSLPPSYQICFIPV

[6] = Entrectinib 600 mg with rifampin 600 mg QD
[7] = Entrectinib 600 mg with rifampin

What does the source list for `O=C(Nc1n[nH]c2ccc(Cc3cc(F)cc(F)c3)cc12)c1ccc(N2CCNCC2)cc1NC1CCOCC1` [M5]?
IC50 (CYP3A4/5; human liver microsomes, read-out: IC50): > 10000 nM; AUCinf ([1]; Entrectinib 600 mg alone, single dose, healthy subjects, fasted): 11,000 (44%) nM•h; M5/Entrectinib ratio, AUCinf ([1]; Entrectinib 600 mg alone): 0.337 (56%); M5/Entrectinib ratio, Cmax ([1]; Entrectinib 600 mg alone): 0.234 (59%); Cmax ([1]; Entrectinib 600 mg alone): 383 nM; t1/2 ([1]; Entrectinib 600 mg alone): 33.8 (12%) h; Tmax ([1]; Entrectinib 600 mg alone, median (minimum, maximum)): 5.0 (4.0, 5.0) h; AUCinf [1, 6]: 1530 (28%) nM•h; Cmax [1, 6]: 108 nM; t1/2 [1, 6]: 31.1 (28%) h; Tmax ([1]; Entrectinib 600 mg with rifampin 600 mg QD, median (minimum, maximum)): 3.0 (2.0, 6.0) h; M5/Entrectinib ratio, AUCinf [1, 7]: 0.187 (28%); M5/Entrectinib ratio, Cmax [1, 7]: 0.136 (23%); M5 exposure as share of entrectinib exposure (mean M5/entrectinib ratio for AUCinf) ([1]; entrectinib 600 mg alone): approximately 34%; M5 exposure as share of entrectinib exposure (mean M5/entrectinib ratio for AUCinf) ([1]; entrectinib 600 mg coadministered with rifampin): 19%; mean t1/2 ([1]; following entrectinib alone and with rifampin): 31 to 34 h; IC50 (CYP1A2): > 10 µM; IC50 (CYP2B6 [2]): > 10 µM; IC50 (CYP2C9): > 10 µM; M5 Metabolism (CYP2B6 [3]): -; M5 Metabolism (CYP2C19): -; M5 Metabolism (CYP3A4): +++; M5 Metabolism (CYP3A5): ++; share of entrectinib metabolism [4]: 41%; share of total drug-related material [4]: 12%; share of [14C]entrectinib-derived radioactivity ([5]; human liver microsomes): 28%; free Cmax lower than the CYP2C8 IC50 (CYP2C8; free Cmax 0.0134 μM vs IC50 about 4.9 μM): > 300 fold; IC50 (CYP2C8): ~4.9 µM and 4.9 µM

Which IC50 (CYP3A4/5; human, microsomes) does the source give for `CN1CCN(c2ccc(C(=O)Nc3n[nH]c4ccc(Cc5cc(F)cc(F)c5)cc34)c(NC3CCOCC3)c2)CC1` [Entrectinib] here?
The IC50 was 2000 nM.

And the t1/2 ([1]; Entrectinib 600 mg alone)?
The t1/2 was 16.7 (16%) h.

What about the t1/2 [1, 6] of the same compound?
The t1/2 was 9.9 (26%) h.

What about the “decrease of AUCinf” value ([1]; entrectinib coadministered with rifampin vs alone) of the same compound?
The value was 77%.

And the Tmax ([1]; human, in vivo, 600 mg)?
The Tmax was 2.0 (2.0, 5.0) h.

What about the Tmax ([1]; human, in vivo, 600 mg, Tmax) of the same compound?
Its Tmax is 3.5 h.

And the half-life ([1]; human, in vivo, 600 mg, t1/2, Entrectinib 600 mg alone)?
Its half-life is 1020 min.

And the half-life ([1]; human, in vivo, 600 mg, t1/2, Entrectinib 600 mg with rifampin 600 mg QD)?
Its half-life is 600 min.

What about the IC50 (CYP1A2) of the same compound?
Its IC50 is > 10 µM.

And the IC50 (CYP2B6 [2])?
The IC50 was > 10 µM.

And the IC50 (CYP2C9)?
Its IC50 is > 10 µM.

And the “Entrectinib Metabolism to M5” value (CYP2B6 [3])?
Its value is “-”.

What about the “Entrectinib Metabolism to other Products” value (CYP2B6 [3]) of the same compound?
The value was “-”.

And the “Entrectinib Metabolism to M5” value (CYP2C19)?
Its value is “++”.

And the “Entrectinib Metabolism to other Products” value (CYP2C19)?
The value was “-”.

And the “Entrectinib Metabolism to M5” value (CYP3A4)?
The value was “+++”.

And the “Entrectinib Metabolism to other Products” value (CYP3A4)?
Its value is “+++”.

What about the “Entrectinib Metabolism to M5” value (CYP3A5) of the same compound?
Its value is “++”.

And the “Entrectinib Metabolism to other Products” value (CYP3A5)?
The value was “+”.

What about the drug metabolized ([4]; after 120 min of incubation) of the same compound?
Its drug metabolized is 29%.

And the parent remained ([5]; 60 min incubation, pooled human liver microsomes with NADPH)?
Its parent remained is 47%.

What about the IC50 (CYP2C8) of the same compound?
Its IC50 is > 10 µM.
